The source of these data is the METLIN SMRT retention time set (Domingo-Almenara et al. 2019).

The data set in a line: gradient 5% acetonitrile 3 min, to 50% in 2 min, to 85% in 15 min, held 3 min, 100 µL/min. As to conditions: column: Zorbax Extend-C18 2.1 x 50 mm; eluents: water / acetonitrile, 0.1% formic acid. Put shortly: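 Retention time was recorded from adduct peaks, which were picked computationally and each inspected manually. Pure standards ran in mixtures of ~100 molecules on HPLC coupled to a quadrupole time-of-flight mass spectrometer, in positive and negative ionization mode, through a Zorbax Extend-C18 column (2.1 × 50 mm, 1.8 μm) at 100 μL/min. Eluents were water and acetonitrile, each with 0.1% formic acid.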
Turning to `COc1cc(CNC(=O)c2nc(CCS(=O)(=O)c3ccc(F)cc3)no2)cc(OC)c1OC`, the RP-LC retention time was 788 s.
Take `Cc1ccc2c(c1)C(=O)NC1(CCN(C(=O)NCc3ccccc3)CC1)N2C`: the RP-LC retention time was 731 s.
`CCCc1noc(-c2cccnc2N2CCCN(Cc3ccc(C)cc3)CC2)n1` had an RP-LC retention time of 749 s.
Consider `Cc1cc(=O)n(CC(=O)Nc2ccc(F)cc2)c(N2CCCC2)n1`, for which the RP-LC retention time worked out at 618 s.
On to `O=C(NCc1ccc2c(c1)CCCN2C(=O)C1CCC1)c1cc(F)ccc1Cl`, for which the RP-LC retention time worked out at 884 s.
For the molecule `O=C(c1cnccn1)N1C[C@@H](COCC2CC2)[C@H](c2ccncc2)C1`, the RP-LC retention time worked out at 563 s.
In turn, `CC(NC(=O)Nc1ccc(Br)cc1)C(=O)N1CCc2ccccc21` (configuration not stated) had an RP-LC retention time of 941 s.
Regarding `COc1ccc(-c2csc(NC(=O)COc3ccccc3Cl)n2)cc1Br`, the RP-LC retention time was determined as 1220 s.
Regarding `Cn1nccc1C(=O)N1CCc2cc(-c3csc(C4CC4)n3)ccc21`, the RP-LC retention time came out at 990 s.
For the molecule `COc1ccc(-c2nc(NCCCN3CCCCC3C)c3ccccc3n2)cc1` (configuration not stated), the RP-LC retention time was determined as 579 s.
In turn, `Cc1noc(-c2nn(C)c3c2CN(C(=O)COc2ccccc2)CC3)n1` showed an RP-LC retention time of 729 s.
With `CCCn1ncc(N2CCC(C(=O)NCCCN3CCCC3=O)CC2)cc1=O`, the RP-LC retention time is 594 s.
The molecule `Cc1ccc(Nc2cc(N3CCC(C(=O)N4CCCC4)CC3)ncn2)cc1` returned an RP-LC retention time of 632 s.
On to `CCn1ccc(C(=O)Nc2cccc(OCc3nnc(-c4ccccc4)o3)c2)n1`, for which the RP-LC retention time was 891 s.
`Cc1ccc(S(=O)(=O)N2c3ccccc3NC3=C(C(=O)CCC3)C2c2ccco2)cc1` (configuration not stated): the RP-LC retention time was 837 s.
The molecule `O=C(c1ccco1)N1CCc2c([nH]c3ccccc23)C1c1ccc(Cl)cc1` (configuration not stated) gave an RP-LC retention time of 1170 s.
In turn, `O=C(Nc1ccc(Nc2ccncc2)cc1)c1ccc(Nc2ccnc3ccc([N+](=O)[O-])cc23)cc1` had an RP-LC retention time of 636 s.
Turning to `COc1cc(C(=O)Nc2nc(-c3ccc4c(c3)N(C)C(=O)CO4)c(C)s2)cc(OC)c1OC`, the RP-LC retention time is 964 s.
`CCc1nc(-c2csc(S(=O)(=O)N3CCC(C(=O)N4CCc5ccccc54)CC3)c2)no1` gave an RP-LC retention time of 1050 s.
Molecule `Cc1cc(C)nc(-n2nc(C)c3c2N(C)C(=O)CC3c2ccccc2Cl)n1` (configuration not stated) showed an RP-LC retention time of 810 s.
The result for `O=C(NC1CCS(=O)(=O)C1)C1Cn2cccc2C(=O)N1Cc1ccccc1` (configuration not stated) reads 652 s.
As to `Cc1csc(-c2cc(S(=O)(=O)N3CCN(Cc4ccc5c(c4)OCO5)CC3)c(C)s2)n1`, the RP-LC retention time is 740 s.
The molecule `Cc1ccccc1Cc1c(C)nc2nc(SCC(=O)NCCCN3CCOCC3)nn2c1C` yielded an RP-LC retention time of 643 s.
The molecule `Cc1ccc(CNC(=O)C2CCN(c3ccc(SCc4ccccc4)nn3)CC2)cc1` had an RP-LC retention time of 821 s.
For `Cc1ccc(-c2cnn3c(N4CCN(c5ccccn5)CC4)cc(C)nc23)cc1`, the RP-LC retention time was 751 s.
The molecule `O=C(Nc1ccccc1)C1CCc2nc(N3CCN(C(=O)C4CCC4)CC3)sc2C1` (configuration not stated) registered an RP-LC retention time of 608 s.
`COc1cc(OC)c(NC(=O)N2CCC(CN3CCCC(C)C3)CC2)cc1Cl` (configuration not stated): the RP-LC retention time is 630 s.
As to `CCOc1ccc(CC(=O)NC2CCN(c3cc(-c4cccs4)[nH]n3)C2)cc1` (configuration not stated), the RP-LC retention time was found to be 733 s.
In turn, `COc1ccc(N2CC(c3nc(-c4ccc(CNC(=O)C5CC5)s4)no3)CC2=O)cc1` (configuration not stated) came in with an RP-LC retention time of 748 s.
The result for `CCOc1cc(C2NCCc3c2[nH]c2ccc(Cl)cc32)ccc1O` (configuration not stated) reads 671 s; that for `COCCNC(=O)N1CCCN(C2=NS(=O)(=O)C(c3ccc(Cl)cc3)=C2C)CC1`, 718 s; that for `CCCNC(=O)C1CCN(S(=O)(=O)c2cc(C(=O)N(C)C)cs2)CC1`, 658 s.
